Assay results reported in patent US20240400555A1 (Initial Therapeutics, Inc., priority 2023, published 2024).
Where two headings read alike, the source gives them in different places.

Tested on: MV-4-11 cells
Experiment: Cell Viability Assay in MV-4-11 Cells
Type: cell-based
Conditions: Homo sapiens, MV4-11, 72 h
Method in brief: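 MV-4-11 cells at 7,000/well in IMDM with 10% FBS, exposed to compound for 72 h. Viability by CellTiter-Glo luminescence, normalized to DMSO as 100%, fitted with a four-parameter curve.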

[1] = MV-4-11 cells, 72 h, Cell-Titer Glo, read-out: IC50

IC50 [1] [nM]	Compound	IC50 [nM]
200	O=C(c1ccc(-n2nnc3cccnc32)cc1F)N(c1nccc2sc(-c3cccc(O)c3)cc12)[C@@H]1CCCNC1 [Example 381, 2-fluoro-N-[2-(3-hydroxyphenyl)thieno[3,2-c]pyridin-4-yl]-N-[(3R)-3-piperidyl]-4-(triazolo[4,5-b]pyridin-3-yl)benzamide]	–
710	Cn1cc(-c2ccc(C(=O)N(c3nccc4sc(Br)cc34)[C@@H]3CCCNC3)c(F)c2)nn1 [Example 506, N-(2-bromothieno[3,2-c]pyridin-4-yl)-2-fluoro-4-(1-methyltriazol-4-yl)-N-[(3R)-3-piperidyl] benzamide]	–
340	Cn1cc(-c2ccc(C(=O)N(c3nccc4cc(-c5ccccn5)ccc34)[C@@H]3CCCNC3)c(F)c2)nn1 [Example 581, (R)-2-fluoro-4-(1-methyl-1H-1,2,3-triazol-4-yl)-N-(piperidin-3-yl)-N-(6-(pyridin-2-yl)isoquinolin-1-yl)benzamide]	–
–	Cn1cc(-c2ccc(C(=O)N(c3nccc4sc(C(=O)Nc5ccncc5)cc34)[C@@H]3CCCNC3)c(F)c2)nn1 [Example 813, (R)-4-(2-fluoro-4-(1-methyl-1H-1,2,3-triazol-4-yl)-N-(piperidin-3-yl)benzamido)-N-(pyridin-4-yl)thieno[3,2-c]pyridine-2-carboxamide]	550
55	COc1cc(C)c2c(N(C(=O)c3ccc(-c4cn(C)nn4)cc3)[C@@H]3CCCNC3)nccc2c1 [Example 858, N-(6-methoxy-8-methyl-1-isoquinolyl)-4-(1-methyltriazol-4-yl)-N-[(3R)-3-piperidyl]benzamide]	–
20	Cc1cccc2ccnc(N(C(=O)c3ccc(Nc4nccc(-c5ccc6[nH]ncc6c5)n4)cc3F)[C@@H]3CCCNC3)c12 [Example 932, (R)-4-((4-(1H-indazol-5-yl)pyrimidin-2-yl)amino)-2-fluoro-N-(8-methylisoquinolin-1-yl)-N-(piperidin-3-yl)benzamide]	–
120	Cc1csc2ccnc(N(C(=O)c3ccc(-c4cn(C)nn4)cn3)[C@@H]3CCCNC3)c12 [Example 811, (R)-5-(1-methyl-1H-1,2,3-triazol-4-yl)-N-(3-methylthieno[3,2-c]pyridin-4-yl)-N-(piperidin-3-yl)picolinamide]	–
150	Cc1cn(-c2ccc(C(=O)N(c3nccc4cccc(Cl)c34)[C@@H]3CCCNC3)c(F)c2)nn1 [Example 393, (R)—N-(8-chloroisoquinolin-1-yl)-2-fluoro-4-(4-methyl-1H-1,2,3-triazol-1-yl)-N-(piperidin-3-yl)benzamide]	–
34	Cc1cccc2ccnc(N(C(=O)c3ccc(Nc4nccc(N5[C@H](C)COC[C@@H]5C)n4)cc3F)[C@@H]3CCCNC3)c12 [Example 940, 4-((4-((3R,5S)-3,5-dimethylmorpholino)pyrimidin-2-yl)amino)-2-fluoro-N-(8-methylisoquinolin-1-yl)-N—((R)-piperidin-3-yl)benzamide]	–
110	NC(=O)Cc1cccc(-c2cc3c(N(C(=O)c4ccc(-n5nnc6cccnc65)cc4F)[C@@H]4CCCNC4)nccc3s2)c1 [Example 447, N-[2-[3-(2-amino-2-oxo-ethyl)phenyl]thieno[3,2-c]pyridin-4-yl]-2-fluoro-N-[(3R)-3-piperidyl]-4-(triazolo[4,5-b]pyridin-3-yl)benzamide]	–
82	Cc1cc(-c2ccc(C(=O)N(c3nccc4cccc(C)c34)[C@@H]3CCCNC3)c(F)c2)on1 [Example 316, (R)-2-fluoro-N-(8-methylisoquinolin-1-yl)-4-(3-methylisoxazol-5-yl)-N-(piperidin-3-yl) benzamide]	–
190	Cn1cc(-c2ccc(C(=O)N(c3nccc4sc(-c5ccc(-c6cn[nH]c6)cc5)cc34)[C@@H]3CCCNC3)c(F)c2)nn1 [Example 597]	–
260	CCc1nnc(-c2ccc(C(=O)N(c3nccc4cc(Cl)cc(C)c34)[C@@H]3CCCNC3)nc2)s1 [Example 730, (R)—N-(6-chloro-8-methylisoquinolin-1-yl)-5-(5-ethyl-1,3,4-thiadiazol-2-yl)-N-(piperidin-3-yl)picolinamide]	–
2400	COC(=O)c1ccnc(Nc2ccc(C(=O)N(c3nccc4cccc(C)c34)[C@@H]3CCCNC3)c(F)c2)n1 [Example 400, methyl (R)-2-((3-fluoro-4-((8-methylisoquinolin-1-yl)(piperidin-3-yl)carbamoyl)phenyl)amino)pyrimidine-4-carboxylate]	–
170	CCc1nnc(-c2ccc(C(=O)N(c3nccc4scc(C)c34)[C@@H]3CCCNC3)nc2)s1 [Example 670, (R)-5-(5-ethyl-1,3,4-thiadiazol-2-yl)-N-(3-methylthieno[3,2-c]pyridin-4-yl)-N-(piperidin-3-yl)picolinamide]	–
1500	CNC(=O)C#Cc1cc2c(N(C(=O)c3ccc(-n4nnc5cccnc54)cc3F)[C@@H]3CCCNC3)nccc2s1 [Example 549, 2-fluoro-N-[2-[3-(methylamino)-3-oxo-prop-1-ynyl]thieno[3,2-c]pyridin-4-yl]-N-[(3R)-3-piperidyl]-4-(triazolo [4,5-b]pyridin-3-yl)benzamide]	–
140	Cn1cc(-c2ccc(C(=O)N(c3nccc4sc(-c5ccc(-c6cc[nH]n6)cc5)cc34)[C@@H]3CCCNC3)c(F)c2)nn1 [Example 529, 2-fluoro-4-(1-methyltriazol-4-yl)-N-[(3R)-3-piperidyl]-N-[2-[4-(1H-pyrazol-3-yl)phenyl]thieno [3,2-c]pyridin-4-yl] benzamide]	–
130	Cc1cccc2ccnc(N(C(=O)c3ccc(Nc4ncc5ccccc5n4)cc3F)[C@@H]3CCCNC3)c12 [Example 824, (R)-2-fluoro-N-(8-methylisoquinolin-1-yl)-N-(piperidin-3-yl)-4-(quinazolin-2-ylamino)benzamide]	–
200	Nc1cc(-c2cc3c(N(C(=O)c4ccc(-n5nnc6cccnc65)cc4F)[C@@H]4CCCNC4)nccc3s2)ccn1 [Example 383, N-[2-(2-amino-4-pyridyl)thieno[3,2-c]pyridin-4-yl]-2-fluoro-N-[(3R)-3-piperidyl]-4-(triazolo[4,5-b]pyridin-3-yl)benzamide]	–
470	Cc1nnc(-c2ccc(C(=O)N(c3nccc4cc(Cl)cc(C)c34)[C@@H]3CCCNC3)cc2C)s1 [Example 707, (R)—N-(6-chloro-8-methylisoquinolin-1-yl)-3-methyl-4-(5-methyl-1,3,4-thiadiazol-2-yl)-N-(piperidin-3-yl)benzamide]	–
170	CCc1nnc(-c2ccc(C(=O)N(c3nccc4c(F)ccc(C)c34)[C@@H]3CCCNC3)c(F)c2)s1 [Example 657, (R)-4-(5-ethyl-1,3,4-thiadiazol-2-yl)-2-fluoro-N-(5-fluoro-8-methylisoquinolin-1-yl)-N-(piperidin-3-yl)benzamide]	–
7300	Cc1cccc2ccnc(N(C(=O)c3cccc(C#CCCC(=O)NCc4ccncc4)c3)[C@@H]3CCCNC3)c12 [Example 517, (R)—N-(8-methylisoquinolin-1-yl)-3-(5-oxo-5-((pyridin-4-ylmethyl)amino)pent-1-yn-1-yl)-N-(piperidin-3-yl)benzamide]	–
630	CC(C)NC(=O)c1cccc(-c2cc3c(N(C(=O)c4ccc(-c5cn(C)nn5)cc4F)[C@@H]4CCCNC4)nccc3s2)c1 [Example 539, 2-fluoro-N-[2-[3-(isopropylcarbamoyl)phenyl]thieno[3,2-c]pyridin-4-yl]-4-(1-methyltriazol-4-yl)-N-[(3R)-3-piperidyl]benzamide]	–
